# Measurements from ChEMBL document CHEMBL1136243, “Synthetic dihydropacidamycin antibiotics: a modified spectrum of activity for the pacidamycin class” (2003).
# Columns and labels:
# Assay type in all cases: functional
# [1] = system: Mycobacterium tuberculosis; experiment: Antibacterial activity against Mycobacterium tuberculosis H37Rv
# [2] = system: Mycobacterium tuberculosis; experiment: Antibacterial activity against Mycobacterium tuberculosis TN565 (W)
# [3] = system: Mycobacterium tuberculosis; experiment: Antibacterial activity against Mycobacterium tuberculosis TN1618 (P)
# [4] = system: Mycobacterium tuberculosis; experiment: Antibacterial activity against Mycobacterium tuberculosis TN913
# Pasteurella multocida = experiment: Antibacterial activity against Pasteurella multocida wild-type
# Escherichia coli [5] = experiment: Antibacterial activity against Escherichia coli wild-type
# Pseudomonas aeruginosa = experiment: Antibacterial activity against Pseudomonas aeruginosa wild-type
# Klebsiella pneumoniae [6] = experiment: Antibacterial activity against Klebsiella pneumoniae resistant to (AMP) ampicillin; (GEN) gentamicin; NAL (nalidixic acid); (TET) tetracycline
# Salmonella sp. = experiment: Antibacterial activity against Salmonella species. resistant to (AMP) ampicillin; (ERY) erythromycin
# Escherichia coli [7] = experiment: Antibacterial activity against Escherichia coli resistant to (GEN) gentamicin; (RIF) rifampicin; (SM) streptomycin; (SP) spectinomycin; (SU) sulfonamides; (TET) tetracycline; (Hg)mercury
# Escherichia coli [8] = experiment: Antibacterial activity against Escherichia coli resistant to (AMP) ampicillin;) KAN) kanamycin; (NM) neomycin; (RIF) rifampicin; (TET) tetracycline; (Hg)mercury
# Klebsiella pneumoniae [9] = experiment: Antibacterial activity against Klebsiella pneumoniae
# Citrobacter freundii = experiment: Antibacterial activity against Citrobacter freundii resistant to (GEN) gentamicin; (ERY) erythromycin;
# Acinetobacter baumannii = experiment: Antibacterial activity against Acinetobacter baumannii resistant to (ERY) erythromycin;
# Enterobacter cloacae = experiment: Antibacterial activity against Enterobacter cloacae resistant to (ERY) erythromycin;
# Citrobacter koseri = experiment: Antibacterial activity against Citrobacter diversus
# [10] = Escherichia coli, read-out: MIC
SMILES,MIC [1],MIC [2],MIC [3],MIC [4],other results
CC(C)C[C@H](N)C(=O)N(C)[C@@H](C)[C@H](NC(=O)[C@H](Cc1ccccc1)NC(=O)N[C@@H](Cc1c[nH]c2ccccc12)C(=O)O)C(=O)NC[C@H]1C[C@@H](O)[C@H](n2ccc(=O)[nH]c2=O)O1,30 µg/mL,30 µg/mL,10 µg/mL,30 µg/mL,–
C[C@H](N)C(=O)N(C)[C@@H](C)[C@H](NC(=O)[C@H](Cc1ccccc1)NC(=O)N[C@@H](Cc1ccc2ccccc2c1)C(=O)O)C(=O)NC[C@H]1C[C@@H](O)[C@H](n2ccc(=O)[nH]c2=O)O1,30 µg/mL,30 µg/mL,10 µg/mL,30 µg/mL,–
CSCC[C@H](NC(=O)N[C@@H](Cc1ccc(O)cc1)C(=O)O)C(=O)N[C@H](C(=O)NC[C@H]1C[C@@H](O)[C@H](n2ccc(=O)[nH]c2=O)O1)[C@H](C)N(C)C(=O)[C@H](C)N,> 30 µg/mL,> 30 µg/mL,> 30 µg/mL,> 30 µg/mL,–
C[C@H](N)C(=O)N(C)[C@@H](C)[C@H](NC(=O)[C@H](Cc1ccc(F)cc1)NC(=O)N[C@@H](Cc1c[nH]c2ccccc12)C(=O)O)C(=O)NC[C@H]1C[C@@H](O)[C@H](n2ccc(=O)[nH]c2=O)O1,8 µg/mL,4 µg/mL,8 µg/mL,8 µg/mL,–
C[C@H](N)C(=O)N(C)[C@@H](C)[C@H](NC(=O)[C@H](Cc1ccccc1)NC(=O)N[C@@H](Cc1c[nH]c2ccccc12)C(=O)O)C(=O)NC[C@H]1CC(O)[C@H](n2ccc(=O)[nH]c2=O)O1 (some centres undefined),8 µg/mL,4 µg/mL,8 µg/mL,8 µg/mL,–
CC(C)C[C@H](NC(=O)N[C@@H](Cc1c[nH]c2ccccc12)C(=O)O)C(=O)N[C@H](C(=O)NC[C@H]1C[C@@H](O)[C@H](n2ccc(=O)[nH]c2=O)O1)[C@H](C)N(C)C(=O)CN,> 30 µg/mL,> 30 µg/mL,> 30 µg/mL,> 30 µg/mL,–
C[C@@H]([C@H](NC(=O)[C@H](Cc1ccccc1)NC(=O)N[C@@H](Cc1c[nH]c2ccccc12)C(=O)O)C(=O)NC[C@H]1C[C@@H](O)[C@H](n2ccc(=O)[nH]c2=O)O1)N(C)C(=O)CN,–,–,–,–,MIC (Pasteurella multocida): 64 µg/mL; MIC (Escherichia coli [5]; [10]): 256 µg/mL; MIC (Pseudomonas aeruginosa): 8 µg/mL
C[C@H](N)C(=O)N(C)[C@@H](C)[C@H](NC(=O)[C@H](Cc1ccc(F)cc1)NC(=O)N[C@@H](Cc1ccc(O)cc1)C(=O)O)C(=O)NC[C@H]1C[C@@H](O)[C@H](n2ccc(=O)[nH]c2=O)O1,10 µg/mL,8 µg/mL,10 µg/mL,8 µg/mL,MIC (Klebsiella pneumoniae [6]): ≥ 64 µg/mL; MIC (Salmonella sp.): 8 µg/mL; MIC (Escherichia coli [7]): 8 µg/mL; MIC (Escherichia coli [8]): 8 µg/mL; MIC (Klebsiella pneumoniae [9]): 32 µg/mL; MIC (Citrobacter freundii): 1 µg/mL; MIC (Pasteurella multocida): 512 µg/mL; MIC (Acinetobacter baumannii): ≥ 64 µg/mL; MIC (Enterobacter cloacae): ≥ 64 µg/mL; MIC (Escherichia coli [5]): 4 µg/mL; MIC (Escherichia coli [5]; [10]): 4 µg/mL; MIC (Citrobacter koseri): 16 µg/mL; MIC (Pseudomonas aeruginosa): 64 µg/mL
C[C@H](N)C(=O)N(C)[C@@H](C)[C@H](NC(=O)[C@H](Cc1ccc(-c2ccccc2)cc1)NC(=O)N[C@@H](Cc1c[nH]c2ccccc12)C(=O)O)C(=O)NC[C@H]1C[C@@H](O)[C@H](n2ccc(=O)[nH]c2=O)O1,8 µg/mL,4 µg/mL,10 µg/mL,4 µg/mL,–
C[C@H](N)C(=O)N(C)[C@@H](C)[C@H](NC(=O)[C@H](Cc1ccc(C(F)(F)F)cc1)NC(=O)N[C@@H](Cc1c[nH]c2ccccc12)C(=O)O)C(=O)NC[C@H]1C[C@@H](O)[C@H](n2ccc(=O)[nH]c2=O)O1,8 µg/mL,4 µg/mL,8 µg/mL,4 µg/mL,–
C[C@H](NC(=O)N[C@@H](Cc1c[nH]c2ccccc12)C(=O)O)C(=O)N[C@H](C(=O)NC[C@H]1C[C@@H](O)[C@H](n2ccc(=O)[nH]c2=O)O1)[C@H](C)N(C)C(=O)[C@@H](N)Cc1ccc(O)cc1 [PACIDAMYCIN],> 30 µg/mL,> 30 µg/mL,> 30 µg/mL,> 30 µg/mL,MIC (Pasteurella multocida): 128 µg/mL; MIC (Escherichia coli [5]; [10]): 256 µg/mL; MIC (Pseudomonas aeruginosa): 16 µg/mL
